Reference: patent US20250000083A1, “CRYOPRESERVATION PREPARATION FOR CORNEAL ENDOTHELIAL CELLS AND METHOD FOR PRODUCING SAID CRYOPRESERVATION PREPARATION” (THE DOSHISHA, priority 2021, published 2025)

Columns and labels:
[1] = system: Human corneal endothelial cells; assay: Adhesion of thawed cells cultured in medium with addition of DMSO (phase contrast microscopy), Example 3; type: cell-based
Description: (§1) • 1. Collect cells in the same manner as in Example 2 (Steps 1 to 10) and preserve the cells in cryotubes using Cryostor CS2. • 2. Freeze in a programmable freezer from 4° C. to −80° C. at −0.5° C./min. 3. Transfer to a Bicell processing housing previously cooled at −80° C. when a temperature was decreased to −80° C. and cryopreserve the Bicell in a freezer at −80° C. for 3 days. • 4. After 3 days of cryopreservation, thaw the cryotubes in which the cells were preserved in a water bath at 37° C. for 1 to 2 minutes. • 5. Collect the cells in a medium warmed to 37° C. in advance, and measure the number of cells collected and cell viability by trypan blue staining. • 6. Dispense the collected cells into four 15 mL STEMFULLS and centrifuge at 300 G for 5 minutes. • 7. After centrifugation, remove a supernatant, adjust a cell density to 1000 cells/mm^2 using media containing 10%, 5%, 2%, and 0% DMSO, and reseed in 12-well plates. • 8. Photograph the cells under a phase contrast microscope at 1 h, 3 h, 6 h, and 24 h after seeding. • 9. After taking photographs of the cells at each time point, collect all cells in the container, including floating cells, and determine cell viability by trypan blue staining.

[2] = system: Human corneal endothelial cells; assay: Viability of cells reseeded in medium with DMSO and collected (trypan blue), Example 3; type: cell-based; conditions: medium containing 10% DMSO
Description: as §1

## C[S+](C)[O-] [DMSO, dimethyl sulfoxide]
[1]; 5% DMSO, after 3 and 6 hours
  cell adhesion: less than half of the cells were adherent
[1]; 5% DMSO, after 1 hour
  cell adhesion: almost no adherent cells
[1]; 5% DMSO, after 24 hours
  cell adhesion: almost no adherent cells
[1]; 10% DMSO, until 24 hours after seeding
  cell adhesion: no cells were adherent
[1]; medium containing 2% DMSO
  adhesion rate compared with medium without DMSO: not different
[1]; medium supplemented with 5% DMSO
  number of cells compared with medium without DMSO: significantly lower
[1]; medium supplemented with 10% DMSO
  number of cells compared with medium without DMSO: significantly lower
[2]; at 1 hour
  viability of cells after reseeded and collected: no decrease in viability
[2]; subsequent to 1 hour
  viability of cells after reseeded and collected: decrease in viability
